# ChEMBL document CHEMBL1148087, “Structure and absolute configuration of palmonine F, a new eunicellin-based diterpene from the gorgonian Eunicella verrucosa” (1994)
# Key:
# Type in all cases: functional
# Conditions in all cases: read-out: ED50 (the source's name)
# [1] = test system: P388; experiment: Cytotoxicity against mouse P388 cells
# [2] = test system: SK-MEL-28; experiment: Cytotoxicity against human SK-MEL-28 cells
# [3] = test system: A549; experiment: Cytotoxicity against human A549 cells
# [4] = test system: HT-29; experiment: Cytotoxicity against human HT-29 cells
SMILES,EC50 [1] [µg/mL],EC50 [2] [µg/mL],EC50 [3] [µg/mL],EC50 [4] [µg/mL]
CO[C@H]1CC[C@@](C)(OC(C)=O)[C@@H]2O[C@H](C[C@]1(C)O)[C@@H]1[C@H]2[C@@H](C(C)C)CC[C@@]1(C)OC(C)=O [PALMONINE A],> 10,> 10,> 10,> 10
C=C1C[C@H]2O[C@H]([C@H]3[C@@H]2[C@](C)(OC(C)=O)CC[C@@H]3C(C)C)[C@](C)(OC(C)=O)CC[C@@H]1OC(C)=O [PALMONINE B],5,5,,
CO[C@H]1CC[C@@](C)(OC(C)=O)[C@@H]2O[C@H](C[C@]1(C)O)[C@@H]1[C@H]2[C@@H](C(C)C)CC[C@@]1(C)O [PALMONINE C],> 10,> 10,> 10,> 10
C=C1C[C@H]2O[C@H]([C@H]3[C@@H]2[C@](C)(OC(C)=O)CC[C@@H]3C(C)C)[C@](C)(OC(C)=O)CCC1=O [PALMONINE D],> 10,> 10,> 10,> 10
CC(=O)O[C@]1(C)CC[C@H](C(C)C)[C@@H]2[C@H]1[C@H]1/C=C(/C)C(=O)CC[C@@](C)(OC(C)=O)[C@@H]2O1 [PALMONINE E],> 10,> 10,> 10,> 10
C=C1C[C@H]2O[C@H]([C@H]3[C@@H]2[C@](C)(OC(C)=O)CC[C@@H]3C(C)C)[C@](C)(OC(C)=O)CC[C@@H]1O [PALMONINE F],> 10,> 10,> 10,> 10
